Laboratory results reported in patent publication US10335400B2, “Treatment of tauopathies with mGluR5 antagonists” (priority 2014, dated 2019).

Key:
PP2A = PP2A activity (phosphatase ELISA) and PP2Ac protein level in BMAA-treated mouse mixed primary neuronal cultures; format: cell-based; conditions: BMAA 100 μM to 1 mM, 3-48 h
Procedure: Mouse hippocampal neuronal cultures were prepared from d 18 embryos as previously described (1). Briefly, C57BL/6 pregnant female mice from Charles River Laboratories were killed by cervical dislocation. All studies were performed in accordance with the recommendations in the Guide for the Care and Use of Laboratory Animals of the National Institutes of Health (2). The protocol was approved by Institutional Animal Care and Use Committee of the New York Institute for Basic Research in Developmental Disabilities. All surgeries were performed under anesthesia, and all efforts were made to minimize suffering. Embryos were removed and placed in cold Hibernate A (BrainBits, LLC), and all the following steps were performed in ice-cold Hibernate A, under a stereoscopic (dissection) microscope placed in a laminar flow hood. Fetal brains were removed carefully, and forebrains were separated. The hippocampus, including the cortex surrounding the area of the hippocampus, was dissected and cut into small pieces using microsurgical scissors. […]
PP2A activity was assayed with homogenate of rat brain slices using the phosphatase ELISA described previously (5). […] Finally 75 μL of 3,3′,5,5′-Tetramethylbenzidine substrate reagent (Sigma) was added, and the colorimetric development was measured using a microtiter plate reader at a wavelength of 650 nm. […]

[1] = test system: PP2A regulated protein kinases; assay: Phosphorylated PP2A regulated protein kinases by Western blots in rat brain slices; format: cell-based; conditions: BMAA-treated rat brain slices (1 mM, 2 h)
Procedure: Male Wistar rats (Charles River Laboratories), 2-3 months old, were anesthetized by i.p. injection with 50 mg/kg Nembutal. The animals were decapitated when deeply anesthetized. The brains were removed immediately and cooled in ice-cold (4° C.) oxygenated artificial cerebrospinal fluid (aCSF) consisting of 126 mM NaCl, 3.5 mM KCl, 1.2 mM NaH2PO4, 1.3 mM MgCl2, 2 mM CaCl2, 11 mM D(+) glucose, and 25 mM NaHCO3 (pH 7.4) for 7-8 min. Each brain then was divided sagittally, and 400-μm-thick coronal slices were made with a Camden Vibraslicer (WP, Inc.). The slices were transferred into a chamber containing the oxygenated aCSF and were incubated at 33° C. for 2 h in the presence or absence of 1 mM, β-N ? methylamino-L-alanine (BMAA) dissolved in 10 mM NaHCO3 (Sigma). The oxygenation of the aCSF was carried out by bubbling the solution with a mixture of 95% O2 and 5% CO2 during the entire procedure. At the end of incubation, the brain slices were homogenized with homogenizing buffer [50 mM Tris·HCl (pH 7.4), 8.5% (wt/vol) sucrose, 2 mM EDTA, 2 mM EGTA, 10 mM (3-mercaptoethanol, 5 mM benzamidine, 0.5 mM 4-(2-Aminoethyl) benzenesulfonyl fluoride hydrochloride (AEBSF), 4 μg/mL pepstatin A, and 10 μg/mL each of aprotinin and leupepin] at a ratio of 9.0 mL buffer/1.0 g tissue slices. The homogenates were divided into two parts. One part was centrifuged at 16,000×g for 10 min, and the resulting supernatant was used to assay protein phosphatase 2A (PP2A) activity. Into the other half, an equal volume of phosphatase-inhibitor mixture (20 mM 3-glycerophosphate, 2 mM Na3VO4, and 100 mM NaF) was added immediately, and the samples were used for Western blots.
Protein was fractionated by 10% SDS/PAGE, transferred to PVDF membrane, and then blocked with 5% skim milk for 1 h at room temperature. The membrane was probed with anti-IPP2A (5G6, 1:1, 500) (7), anti-I2P2A (10E7, 1:1, 600) (7), anti-tau ˜92e; 1:5,000) (8), anti-tau (R134d; 1:5 000) (9), anti-tau pSer^262/^356 (12E8; 1:500) (10, anti-tau pSer^199, anti-tau pThr^205, anti-tau pThr^212, and pSer^396 (1:1,000) (Biosource), anti-GAPDH (1:2,000) (Santa Cruz Biotechnology), anti-PP2Ac (1:10 000) (BD Transduction Lab), anti pY^307-PP2A and anti-DML^309-PP2A (1:1,000) (Millipore), anti-GSK-3(α/β), anti-pS^9-GSK-3 β, anti-ERK1/2, anti-pT^202/Y^204-ERK1/2, anti-MEK1/2, anti-p9^17/221-MEK1/2, anti-CAMKII, anti-pT^286-CAMKII, anti-p70 S6 kinase, anti-pT^389-p70 S6 kinase, anti-SAPK/JNK, and anti-pT^183/Y^185-SAPK/JNK (1:1,000) (Cell Signaling Technology). The membrane then was incubated with HRP-conjugated secondary antibody (Jackson ImmunoResearch). The protein bands were detected with the enhanced chemiluminescence reagents (Thermo Scientific). Band intensity was measured by Multi-Gauge V3 software (Fuji Photo Film).

motor neurons = conditions: cited from earlier work

SMILES: CNC[C@H](N)C(=O)O [BMAA, β-N-methylamino-L-alanine]
- PP2A activity (PP2A): significantly decreased
- level of phosphorylated GSK-3β [1]: no significant changes
- level of phosphorylated JNK [1]: no significant changes
- level of phosphorylated p70 S6 kinase [1]: no significant changes
- level of phosphorylated/activated CaMKII [1]: increased noticeably
- level of phosphorylated/activated ERK1/2 [1]: increased noticeably
- level of phosphorylated/activated MEK1/2 [1]: increased noticeably
- BMAA concentration causing selective death of motor neurons (motor neurons): ≥ 30 µM
